39 compounds from ChEMBL document CHEMBL1697821, “Development of a phospholipidosis database and predictive quantitative structure-activity relationship (QSAR) models” (Toxicol Mech Methods, 2008) can be followed below.

This data set has as its system Phospholipidosis. Description: Literature-mined public compounds from Kruhlak et al phospholipidosis modelling dataset.

Take `CC(=O)O.C[C@H]1C[C@@H]2[C@H]([C@@H](O)C[C@@]3(C)[C@H]2CC[C@]3(O)C(=O)CO)[C@@]2(C)C=CC(=O)C=C12`: the Phospholipidosis entry is “Negative: based on the absence of positive reported data from WMDD”.
Turning to `CNS(=O)(=O)Cc1ccc2[nH]cc(CCN(C)C)c2c1`, the Phospholipidosis entry was “Negative: confirmed by electron microscopy”.
The same measure for `CCN(CC)CCSC(=O)C(c1ccccc1)c1ccccc1`: “Negative: based on the absence of positive reported data from WMDD”.
The same measure for `COc1nccnc1NS(=O)(=O)c1ccc(N)cc1`: “Negative: based on the absence of positive reported data from WMDD”.
The value for `CCOC(=O)[C@H](CCc1ccccc1)N[C@@H](C)C(=O)N1Cc2ccccc2C[C@H]1C(=O)O` was “Negative: based on the absence of positive reported data from WMDD”.
With `OC(CN1CCCCC1)c1ccc(C=C2c3ccccc3-c3ccccc32)cc1` (centres undefined), the Phospholipidosis result is recorded as “Positive: strong inducer confirmed by electron microscopy”.
The same measure for `CCCC[C@@H]1CC(=O)[C@]2(O)O[C@@H]3[C@@H](NC)[C@@H](O)[C@@H](NC)[C@H](O)[C@H]3O[C@@H]2O1.O=S(=O)(O)O`: “Positive: strong inducer confirmed by electron microscopy”; for `CN1CCN(C2=Nc3cc(Cl)ccc3N(C)n3cccc32)CC1`: “Positive: strong inducer confirmed by electron microscopy”; for `CCCNCCc1ccc(NS(=O)(=O)c2ccc(OC(F)(F)F)cc2)cc1`: “Positive: strong inducer confirmed by electron microscopy”.
As for `C[n+]1ccc(-c2cc[n+](C)cc2)cc1`, the Phospholipidosis result is recorded as “Positive: strong inducer confirmed by electron microscopy”.
The same measure for `CC(=O)Nc1ccc(O)cc1` [ACETAMINOPHEN]: “Negative: confirmed by electron microscopy”; for `CC(=O)c1ccc2c(c1)N(CCCN1CCN(CCO)CC1)c1ccccc1S2` [ACETOPHENAZINE]: “Negative: based on the absence of positive reported data from WMDD”; for `CC(=O)Nc1c(I)cc(I)c(C(=O)O)c1I` [ACETRIZOIC ACID]: “Negative: based on the absence of positive reported data from WMDD”.
For the compound `Nc1ncnc2nc[nH]c12` [ADENINE], the Phospholipidosis result was “Negative: based on the absence of positive reported data from WMDD”.
The same measure for `Nc1ncnc2c1ncn2[C@@H]1O[C@H](CO)[C@@H](O)[C@H]1O` [ADENOSINE]: “Negative: based on the absence of positive reported data from WMDD”.
The same measure for `CCCSc1ccc2nc(NC(=O)OC)[nH]c2c1` [ALBENDAZOLE]: “Negative: based on the absence of positive reported data from WMDD”; for `C=CCN1C(=O)C(CC(C)C)NC1=S` (centres undefined) [ALBUTOIN]: “Negative: based on the absence of positive reported data from WMDD”.
The same measure for `Oc1ncnc2[nH]ncc12` [ALLOPURINOL]: “Positive: weak inducer based on presence of foamy macrophages and cytoplasmic vacuolations”.
Regarding `C=CC[C@]1(O)CC[C@H]2[C@@H]3CCC4=CCCC[C@@H]4[C@H]3CC[C@@]21C` [ALLYLESTRENOL], the Phospholipidosis result is on record as “Negative: based on the absence of positive reported data from WMDD”.
Take `NC12CC3CC(CC(C3)C1)C2` [AMANTADINE]: the Phospholipidosis result is “Positive: strong inducer confirmed by electron microscopy”.
The same measure for `N=C(N)N/N=C1C=C/C(=N\NC(N)=S)C=C\1` [AMBAZONE]: “Negative: based on the absence of positive reported data from WMDD”.
Turning to `Nc1c(Br)cc(Br)cc1CN[C@H]1CC[C@H](O)CC1` [AMBROXOL], the Phospholipidosis result is “Positive: weak inducer based on presence of foamy macrophages and cytoplasmic vacuolations”.
`NCC[C@H](O)C(=O)N[C@@H]1C[C@H](N)[C@@H](O[C@H]2O[C@H](CN)[C@@H](O)[C@H](O)[C@H]2O)[C@H](O)[C@H]1O[C@H]1O[C@H](CO)[C@@H](O)[C@H](N)[C@H]1O` [AMIKACIN]: the Phospholipidosis entry was “Positive: strong inducer confirmed by electron microscopy”.
The value for `CCC1(c2ccc(N)cc2)CCC(=O)NC1=O` (centres undefined) [AMINOGLUTETHIMIDE] was “Negative: based on the absence of positive reported data from WMDD”; that for `Nc1nc(N)c2nc(CNc3ccc(C(=O)N[C@@H](CCC(=O)O)C(=O)O)cc3)cnc2n1` [AMINOPTERIN] was “Negative: based on the absence of positive reported data from WMDD”.
The value for `CCCCc1oc2ccccc2c1C(=O)c1cc(I)c(OCCN(CC)CC)c(I)c1` [AMIODARONE] was “Positive: strong inducer confirmed by electron microscopy”.
For the compound `CN(C)CCC=C1c2ccccc2CCc2ccccc21` [AMITRIPTYLINE], the Phospholipidosis entry is “Positive: strong inducer confirmed by electron microscopy”.
The value for `CC1(C)S[C@@H]2[C@H](NC(=O)[C@H](N)c3ccc(O)cc3)C(=O)N2[C@H]1C(=O)O` [AMOXICILLIN] was “Negative: based on the absence of positive reported data from WMDD”; that for `CC(N)Cc1ccccc1` (centres undefined) [AMPHETAMINE] was “Negative: based on the absence of positive reported data from WMDD”.
Regarding `N=c1ccn2c(n1)O[C@H]1[C@H](O)[C@@H](CO)O[C@H]12` [ANCITABINE], the Phospholipidosis entry was “Negative: based on the absence of positive reported data from WMDD”.
The value for `C[C@]12CC[C@H]3[C@@H](CC=C4C[C@@H](O)CC[C@@]43C)[C@@H]1CC[C@@H]2O` [ANDROSTENEDIOL] was “Negative: based on the absence of positive reported data from WMDD”; that for `CCOC(=O)C1(c2ccccc2)CCN(CCc2ccc(N)cc2)CC1` [ANILERIDINE] was “Negative: based on the absence of positive reported data from WMDD”; that for `CCCC(CCC)C(=O)O[C@H]1C[C@H]2CC[C@@H](C1)[N+]2(C)C.[Br-]` [ANISOTROPINE METHYLBROMIDE] was “Negative: based on the absence of positive reported data from WMDD”.
The same measure for `c1ccc(CN(CC2=NCCN2)c2ccccc2)cc1` [ANTAZOLINE]: “Negative: based on the absence of positive reported data from WMDD”.
The same measure for `CCCC1C(=O)N2C(N(C)C)=Nc3ccc(C)cc3N2C1=O` (centres undefined) [APAZONE]: “Negative: based on the absence of positive reported data from WMDD”; for `CN1[C@@H]2CC[C@H]1C[C@@H](OC(=O)C(CO)c1ccccc1)C2` (some centres undefined) [ATROPINE]: “Positive: weak inducer based on presence of foamy macrophages and cytoplasmic vacuolations”.
Consider `CN(C)CCCN(C)[C@H]1CC[C@H]2[C@@H]3CC=C4C[C@@H](O)CC[C@]4(C)[C@H]3CC[C@]12C` [AZACOSTEROL], for which the Phospholipidosis result was “Positive: strong inducer confirmed by electron microscopy”.
The same measure for `CC(=O)OC[C@H]1O[C@@H](n2ncc(=O)[nH]c2=O)[C@H](OC(C)=O)[C@@H]1OC(C)=O` [AZARIBINE]: “Negative: based on the absence of positive reported data from WMDD”; for `CN1CCN(CCCCN2C(=O)CN(/N=C/c3ccc(-c4ccc(Cl)cc4)o3)C2=O)CC1.Cl.Cl` [AZIMILIDE DIHYDROCHLORIDE]: “Positive: weak inducer based on presence of foamy macrophages and cytoplasmic vacuolations”.
